Consider 11 molecules from ChEMBL document CHEMBL1201862, “PubChem BioAssay data set” (2004).

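Briefly, cells in 96-well plates were exposed to five compound concentrations for 48 h, and endpoints were estimated by linear interpolation. GI50 is the concentration that inhibits growth by half.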 Calls of active or inactive are those of the source. No stated cut-off is given here; in the data, active = GI50 up to about 1.1 µM and inactive = higher.

Test systems include 786-0; ACHN; BT-549; DU-145; EKVX; HT-29; K562; LOX IMVI; MDA-N; Malme-3M; OVCAR-4; PC-3; SF-295; SF-539; SK-OV-3; SNB-19; TK-10; UO-31; A498; MCF7.
Test in all cases: inhibition of tumour cell growth, NCI panel, 48 h

On to `NC1CC(=O)c2cc(Cl)sc21` (stereo not drawn), for which the GI50 in the test on 786-0, in the test with ACHN, in the test with BT-549, in the test with DU-145, in the test with EKVX and with HT-29 was > 100 µM (inactive) throughout. For the same molecule, the GI50 in the test with K562 was 0.929 µM (active); with LOX IMVI, > 100 µM (inactive); in the test with MDA-N, > 100 µM (inactive); with Malme-3M it was > 100 µM (inactive); with OVCAR-4, > 100 µM (inactive); in the test on PC-3, > 100 µM (inactive). Besides, the GI50 in the test with SF-295, in the test on SF-539, in the test on SK-OV-3, in the test on SNB-19, in the test with TK-10 and with UO-31 was > 100 µM (inactive) throughout.
Take `CC1=C(C(=O)Nc2ccccc2)C(c2ccc(N(C)C)cc2)C(C(=O)Nc2ccccc2)=C(C)N1`: the GI50 in the test on 786-0 was 29.6 µM (inactive); with A498 it was > 100 µM (inactive); with ACHN, 0.494 µM (active); in the test with DU-145, 3.17 µM (inactive); in the test on EKVX, 62.8 µM (inactive); with HT-29 it was 3.72 µM (inactive). For the same molecule, the GI50 with K562 is 1.09 µM (active); in the test on LOX IMVI, 2.82 µM (inactive); in the test on MCF7, 10.3 µM (inactive); in the test on MDA-N it was 1.75 µM (inactive); in the test with Malme-3M, 4.79 µM (inactive); in the test with OVCAR-4, 50.8 µM (inactive). The GI50 is 4.08 µM (inactive) in the test on PC-3; 3.54 µM (inactive) with SF-295; 9.59 µM (inactive) in the test with SF-539; 59.2 µM (inactive) with SK-OV-3; 64.3 µM (inactive) with SNB-19; 39.4 µM (inactive) with TK-10. Moreover, in the test with UO-31, the GI50 is 2.37 µM (inactive).
With `CCC[C@H](C)C[C@H](C)C[C@H](C)/C=C(\C)[C@@H](O)[C@@H](C)C(=O)CC`, the GI50 in the test on 786-0 is 20.1 µM (inactive); with A498, 25.5 µM (inactive); in the test with ACHN, 21.9 µM (inactive); in the test with BT-549, 23.4 µM (inactive); in the test on DU-145, 23.5 µM (inactive); in the test with EKVX, 18.8 µM (inactive). For the same molecule, the GI50 with HT-29 was 19.5 µM (inactive); in the test on K562, 18.3 µM (inactive); with LOX IMVI, 20.4 µM (inactive); with MCF7 it was 21.3 µM (inactive); in the test on Malme-3M it was 18.5 µM (inactive); in the test on OVCAR-4, 19.2 µM (inactive). For the same molecule, the GI50 with PC-3 is 20 µM (inactive); with SF-295, 22.9 µM (inactive); with SF-539, 21 µM (inactive); with SK-OV-3, 36.2 µM (inactive); in the test with SNB-19, 20.3 µM (inactive); in the test on TK-10 it was 23.2 µM (inactive). The GI50 in the test on UO-31 is 23 µM (inactive).
For the molecule `O=CCC1CCCCC1`, the GI50 with 786-0, with A498, in the test on ACHN, in the test on BT-549, in the test on EKVX and with K562 was > 100 µM (inactive) each time. For the same molecule, the GI50 with LOX IMVI, in the test on MDA-N, with Malme-3M, in the test with OVCAR-4, in the test on PC-3 and in the test on SF-295 was > 100 µM (inactive) throughout. The GI50 with SF-539, in the test with SK-OV-3, with SNB-19 and in the test with UO-31 was > 100 µM (inactive) each time.
As for `CN(C)C1(N(C)C)Oc2c(c(=O)n(C)c(=O)n2C)C(c2ccc(F)cc2)C1(F)F` (stereo not drawn), the GI50 in the test with 786-0, with A498, in the test on ACHN, in the test on BT-549, in the test on DU-145 and in the test with EKVX was > 100 µM (inactive) throughout. The GI50 in the test on LOX IMVI, in the test on MCF7, in the test with OVCAR-4, with PC-3, with SF-295 and in the test on SK-OV-3 was > 100 µM (inactive) in each case. Moreover, the GI50 in the test with SNB-19, with TK-10 and in the test with UO-31 was > 100 µM (inactive) each time.
Consider `Cc1ccc2c(c1)C(O)(c1ccccc1)CCS2` (stereo not drawn), for which the GI50 in the test on 786-0 was 32.5 µM (inactive); in the test on ACHN, 27.2 µM (inactive); in the test with BT-549 it was 27.3 µM (inactive); with DU-145 it was 46.3 µM (inactive); in the test with EKVX, 51.4 µM (inactive); in the test with HT-29, 25.4 µM (inactive). For the same molecule, the GI50 in the test with K562 was 20.2 µM (inactive); in the test with LOX IMVI, 19.9 µM (inactive); with MCF7, 39.4 µM (inactive); in the test with Malme-3M, 32.9 µM (inactive); with OVCAR-4, 43.4 µM (inactive); with PC-3, 25.8 µM (inactive). In addition, the GI50 was 30.1 µM (inactive) in the test with SF-295; 20.2 µM (inactive) in the test on SF-539; > 100 µM (inactive) in the test with SK-OV-3; 59.6 µM (inactive) in the test with SNB-19; 32.1 µM (inactive) in the test with TK-10; 19.2 µM (inactive) in the test on UO-31.
On to `O=C(NC(Nc1ccc(F)c(Cl)c1)(C(F)(F)F)C(F)(F)F)C(C(F)(F)F)C(F)(F)F`, for which the GI50 in the test with 786-0 is 30.5 µM (inactive); in the test on A498, 44.3 µM (inactive); with ACHN it was 13.5 µM (inactive); with DU-145, 27.5 µM (inactive); in the test with EKVX, 68.4 µM (inactive); in the test on HT-29, 21.9 µM (inactive). Besides, the GI50 is 14.5 µM (inactive) in the test with K562; 12 µM (inactive) in the test with LOX IMVI; 33 µM (inactive) with MCF7; 28.5 µM (inactive) in the test with MDA-N; 19.1 µM (inactive) with Malme-3M; 29 µM (inactive) with OVCAR-4. Further, the GI50 was 24.8 µM (inactive) with PC-3; 36.5 µM (inactive) with SF-295; 22.6 µM (inactive) in the test with SF-539; 52.7 µM (inactive) in the test on SK-OV-3; 30.9 µM (inactive) with SNB-19; 36.4 µM (inactive) with TK-10. Further, in the test with UO-31, the GI50 was 19.5 µM (inactive).
Turning to `COc1cccc(NC(=O)c2c(SC)c(C#N)c(=O)n(N)c2N)c1`, the GI50 in the test on 786-0 is 28.6 µM (inactive); in the test on A498, 79.3 µM (inactive); in the test with ACHN it was > 100 µM (inactive); with BT-549, 61.8 µM (inactive); in the test on EKVX, > 100 µM (inactive); in the test on HT-29, 52 µM (inactive). In addition, the GI50 in the test with K562 is 45.9 µM (inactive); in the test on LOX IMVI, 88.1 µM (inactive); in the test on MCF7, > 100 µM (inactive); with MDA-N, > 100 µM (inactive); in the test with Malme-3M, > 100 µM (inactive); in the test on OVCAR-4, 40.9 µM (inactive). Moreover, the GI50 is 49.8 µM (inactive) in the test on PC-3; 34.2 µM (inactive) in the test on SF-295; 66.4 µM (inactive) in the test with SF-539; 44.5 µM (inactive) with SK-OV-3; 4.52 µM (inactive) in the test with SNB-19; > 100 µM (inactive) in the test with TK-10.
Regarding `Cc1ccc(S(=O)(=O)Nn2c(S)c(C#N)c(-c3ccc(N(C)C)cc3)c(C#N)c2=O)cc1`, the GI50 was 28.6 µM (inactive) in the test on 786-0; 17.3 µM (inactive) in the test with A498; 20.6 µM (inactive) in the test with ACHN; 22.2 µM (inactive) in the test with BT-549; 40.6 µM (inactive) in the test with DU-145; 23.6 µM (inactive) with EKVX. Besides, the GI50 with K562 is 38.8 µM (inactive); in the test with LOX IMVI, 22.1 µM (inactive); with MCF7 it was 30.8 µM (inactive); in the test on MDA-N, > 100 µM (inactive); with Malme-3M, 18.7 µM (inactive); in the test with OVCAR-4, 17.1 µM (inactive). The GI50 in the test on SF-295 was 34.2 µM (inactive); with SF-539 it was 19 µM (inactive); with SK-OV-3, 48.8 µM (inactive); in the test with SNB-19, 43 µM (inactive); in the test with TK-10, 19.8 µM (inactive); with UO-31, 16.9 µM (inactive).
With `CCCCCCCCCC[C@@H](O)[C@@H]1CC[C@@H]([C@@H]2CC[C@@H]([C@@H](O)CCCCCCCCCC[C@H](O)CC3=CC(C)OC3=O)O2)O1` (stereo partly drawn), the GI50 was 3.74 µM (inactive) with 786-0; 1.7 µM (inactive) with A498; 0.0355 µM (active) in the test with ACHN; 4.23 µM (inactive) with BT-549; 8.95 µM (inactive) in the test on DU-145; 1.61 µM (inactive) in the test on EKVX. The GI50 in the test on HT-29 was 2.51 µM (inactive); in the test on K562, 0.0318 µM (active); in the test on LOX IMVI, 0.834 µM (active); in the test with MCF7 it was 1.44 µM (inactive); in the test with Malme-3M, 1.79 µM (inactive); in the test with OVCAR-4, 6.28 µM (inactive). Moreover, the GI50 with PC-3 was 2.34 µM (inactive); in the test with SF-295 it was 1.71 µM (inactive); with SF-539 it was 4.5 µM (inactive); in the test with SK-OV-3 it was 3.92 µM (inactive); in the test on SNB-19, 4.6 µM (inactive); with TK-10, 3.48 µM (inactive). The GI50 with UO-31 is 1.25 µM (inactive).
In the case of `CC(=O)O[C@@]12CO[C@@H]1C[C@H](O)[C@@]1(C)C(=O)[C@H](O)C3=C(C)[C@@H](OC(=O)[C@H](O)[C@@H](NC(=O)OC(C)(C)C)c4ccccc4)C[C@@](O)([C@@H](OC(=O)c4ccccc4)[C@H]21)C3(C)C` [DOCETAXEL], the GI50 in the test with 786-0 is < 0.01 µM (active); in the test on A498, < 0.0851 µM (active); in the test with ACHN it was 0.59 µM (active); in the test on BT-549, 0.00342 µM (active); in the test on EKVX it was 3.72 µM (inactive); with HT-29, < 0.01 µM (active). The GI50 with K562 is < 0.01 µM (active); in the test with LOX IMVI, < 0.0585 µM (active); with MCF7, 0.000409 µM (active); in the test with MDA-N, 0.0001 µM (active); in the test on Malme-3M, > 10 µM (inactive); in the test with OVCAR-4 it was 21.8 µM (inactive). Also, the GI50 in the test with PC-3 was 0.00578 µM (active); in the test on SF-295, 0.0107 µM (active); in the test with SF-539, < 0.01 µM (active); in the test on SK-OV-3 it was 0.0132 µM (active); in the test on SNB-19 it was 43.2 µM (inactive); with TK-10 it was 0.225 µM (active). Moreover, the GI50 in the test on UO-31 was 0.885 µM (active).
